According to publication PMC4897788, “Design, biological evaluation and 3D QSAR studies of novel dioxin-containing pyrazoline derivatives with thiourea skeleton as selective HER-2 inhibitors” (Scientific Reports, 2016):

Legend:
[1] = system: MDA-MB-453 human breast cancer cell line; experiment: Anti-proliferation assay (MTT), MDA-MB-453; format: cell-based; conditions: 24 h
Procedure: MCF-7 human breast cancer cells was cultured in DMEM/10% fetal bovine serum, in 5% CO2 water saturated atmosphere at 37 °C. MDA-MB-453 human breast cancer cells was cultured in L-15 medium in 100% air at 37 °C. Cell suspensions (10000/mL) were prepared and 100 μL/well dispensed into 96-well plates (Costar) giving 1000 cells/well. The plates were returned to the incubator for 24 h to allow the cells to reattach. These compounds were initially prepared at 20 mM in DMSO. Aliquots (200 μL) were diluted into 20 mL culture medium giving 200 μM, and 10 serial dilutions of 3× prepared. Aliquots (100 μL) of each dilution were added to the wells, giving doses ranging from 100 μM to 0.005 μM. After a further incubated at 37 °C for 24 h in a humidified atmosphere with 5% CO2, the cell viability was assessed by the conventional 3-(4,5-dimethylthiazol-2-yl)-2,5-diphenyltetrazolium bromide (MTT) reduction assay and carried out strictly according to the manufacturer instructions (Sigma). The absorbance at 590 nm was recorded using LX300 Epson Diagnostic micro-plate reader. Then GI50 was calculated using SPSS 13.0 software.

[2] = system: MDA-MB-453 cell line; experiment: Flow cytometry, Annexin V-FITC/PI apoptosis; format: cell-based, human; conditions: 0.05, 0.1 and 0.2 μM, 24 h
Procedure: MDA-MB-453 cell line was seeded per well in 24-well plates and incubated overnight. Then they were treated with compound C20 at three different concentrations (0.05 μM, 0.1 μM and 0.2 μM, separately). DMSO was chosen as the negative control with a regular dosage of 0.2%. After 24 h, cells were harvested for the apoptosis detection. In brief, collected cells were washed once with PBS and subsequently washed once with binding buffer, and then stained with Annexin V-FITC and propidium iodide (PI) in the binding buffer for 20 min at room temperature in the dark. Apoptotic cells were quantified using a FACScan cytofluorometer (PT. Madagasi Brosa Inc. JI. Batang Hari NO. 73, Propinsi Sumatera Utara, Indonesia) plotting at least 10,000 events per sample. To quantify the data, the frequencies in all quadrants were analyzed using flowjo software. We regarded cells in the lower right quadrant (Annexin V positive/PI negative) as early apoptotic cells, and cells in upper right quadrant (Annexin V positive/PI positive) as late apoptotic cells and necrotic cells.

[3] = system: p-HER-2; experiment: Western blot p-HER-2 in MDA-MB-453; format: cell-based, human; conditions: increasing C20 levels
Procedure: (§1) After incubation with compound, cells were harvested and washed with PBS, then lysed in lysis buffer (30 mm Tris, pH 7.5, 150 mm NaCl, 1 mm phenylmethylsulfonyl fluoride, 1 mm Na3VO4, 1% Nonidet P-40, 10% glycerol, and phosphatase and protease inhibitors). After centrifugation at 12,000 g for 5 min, the supernatant was collected as total protein. The concentration of the protein was determined by a BCATM protein assay kit (Pierce, Rockford, IL, USA). The protein samples were separated by 10% SDS–PAGE and subsequently electrotransferred onto a polyvinylidene difluoride membrane (Millipore, Bedford, MA, USA). The membrane was blocked with 5% non-fat milk for 2 h at room temperature. The blocked membrane was probed with the indicated primary antibodies overnight at 4 °C, and then incubated with a horse radish peroxidase (HRP)-coupled secondary antibody.

[4] = system: Caspase3; experiment: Western blot Caspase3 in MDA-MB-453; format: cell-based, human; conditions: increasing C20 levels
Procedure: as §1

[5] = target: T1, FAK (Homo sapiens, UniProt Q05397); experiment: FAK inhibitory assay (Kinase-Glo); format: biochemical
T1 construct: human-recombinant full-length FAK
Procedure: Selected compounds were tested against FAK. In a typical study, human-recombinant full-length FAK was incubated in kinase buffer containing ATP and the substrate for 4 h at room temperature with or without the presence of the corresponding coumpounds. The final concentration of drug as 100, 30, 10, 3 μg/mL. The remaining ATP in solution was then quantified utilizing the Kinase-Glo-luminescence kit (Promega).

[6] = Cytotoxicity test (MTT), NIH-3T3; format: cell-based; conditions: mouse, NIH-3T3 mouse embryonic fibroblast cells, NIH3T3
Procedure: The cytotoxic activity in vitro was measured against mouse fibroblast NIH-3T3 cell using the MTT assay. Cells were cultured in a 96-well plate at a density of 5 × 10^5 cells and different concentrations of compounds were respectively added to each well. The incubation was permitted at 37 °C, 5% CO2 atmosphere for 24 h before the cytotoxicity assessments. 20 μL MTT reagent (4 mg/mL) was added per well 4 h before the end of the incubation. Four hours later, the plate was centrifuged at 1200 rcf for 5 min and the supernatants were removed, each well was added with 200 μL DMSO. The absorbance was measured at a wavelength of 490 nm (OD 490 nm) on an ELISA microplate reader. Three replicate wells were used for each concentration and each assay was measured three times, after which the average of IC50 was calculated. The cytotoxicity of each compound was expressed as the concentration of compound that reduced cell viability to 50% (IC50).

[7] = system: human erythrocytes; experiment: Hemolysis test; format: cell-based; conditions: lytic concentration 30%
Procedure: Hemolytic activity was assayed using fresh capillary human blood. Erythrocytes were collected by centrifuging the blood three times in chilled phosphate buffered saline (PBS at 4 °C) at 1000 × g for 10 min. The final pellet was resuspended in PBS to give a 2% w/v solution. Using a microtitre plate, 100 μL of the erythrocyte solution was added to dextran, PLL, stearyl-PLL or stearyl-PLL+ LDL (1–1000/μg/mL) in a volume of […]. Samples were then incubated for 3 h and the microtitre plate was centrifuged then at 1000 × g for 10 min and the supernatants (100 μL) transferred into a new microtitre plate. Hemoglobin release was determined spectrophotometrically using a microtitre plate reader (absorbance at 550 nm). Results were expressed as the amount of released hemoglobin induced by the compounds as a percentage of the total. Hemolysis test was tested according to the guide of biological evaluation of medical device (SFDA, China).

[8] = target: HER-2 (Homo sapiens, UniProt P04626); experiment: HER-2 autophosphorylation kinase assay (DELFIA/time-resolved fluorometry)
Sequence of HER-2 (P04626 676-1245): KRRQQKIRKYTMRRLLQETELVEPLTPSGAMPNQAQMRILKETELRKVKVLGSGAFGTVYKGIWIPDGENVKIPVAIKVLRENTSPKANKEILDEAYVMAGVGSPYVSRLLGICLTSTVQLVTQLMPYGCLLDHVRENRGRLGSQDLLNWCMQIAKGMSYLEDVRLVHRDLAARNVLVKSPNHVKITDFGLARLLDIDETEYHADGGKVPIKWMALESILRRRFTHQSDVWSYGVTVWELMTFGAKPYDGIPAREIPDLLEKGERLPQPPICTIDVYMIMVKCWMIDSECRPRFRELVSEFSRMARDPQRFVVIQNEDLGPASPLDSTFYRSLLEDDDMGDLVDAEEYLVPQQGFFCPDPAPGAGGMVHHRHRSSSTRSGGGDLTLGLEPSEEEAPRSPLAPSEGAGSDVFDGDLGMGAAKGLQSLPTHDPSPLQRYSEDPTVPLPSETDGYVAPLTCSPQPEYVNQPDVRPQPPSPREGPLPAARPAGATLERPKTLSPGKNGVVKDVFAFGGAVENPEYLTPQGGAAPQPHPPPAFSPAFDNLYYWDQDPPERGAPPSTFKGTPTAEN
Procedure: A sequence that encodes (His)6 was located at the 5′ upstream to the HER-2 and EGFR sequences. Sf-9 cells were infected for 3 days for protein expression. Sf-9 cell pellets were solubilized at 0 °C in a buffer at pH 7.4 containing 50 mM HEPES, 10 mM NaCl, 1% Triton, 10 μM ammonium molybdate, 100 μM sodium vanadate, 10 μg/mL aprotinin, 10 μg/mL leupeptin, 10 μg/mL pepstatin, and 16 μg/mL benzamidine, HCl for 20 min followed by 20 min centrifugation. Crude extract supernatant was passed through an equilibrated Ni–NTA superflow packed column and washed with 10 mM and then 100 mM imidazole to remove nonspecifically bound material. Histidine-tagged proteins were eluted with 250 and 500 mM imidazole and dialyzed against 50 mM NaCl, 20 mM HEPES, 10% glycerol and 1 μg/mL each of aprotinin, leupeptin, and pepstatin for 2 h. The entire purification procedure was performed at 4 °C or on ice.
Both EGFR and HER-2 kinase assays were set up to assess the level of autophosphorylation based on DELFIA/Time-Resolved Fluorometry. […] Then, 10 μL of 5× buffer (containing 20 mM HEPES, 2 mM MnCl2, 100 μM Na3VO4, and 1 mM DTT) and 20 μL of 0.1 mM ATP-50 mM MgCl2 was added for 1 h. Positive and negative controls were included in each plate by incubation of enzyme with or without ATP-MgCl2. At the end of incubation, liquid was aspirated and plates were washed three times with wash buffer. A 75 μL (400 ng) sample of europium-labeled anti-phosphotyrosine antibody was added to each well for another 1 h of incubation. […] The IC50 was obtained from curves of percentage inhibition with eight concentrations of compound. As the contaminants in the enzyme preparation are fairly low, the majority of the signal detected by the anti-phosphotyrosine antibody is from EGFR or HER-2. The experiment was performed for three independent times and in triplicate each time.

T1 sequence (Q05397 whole entry): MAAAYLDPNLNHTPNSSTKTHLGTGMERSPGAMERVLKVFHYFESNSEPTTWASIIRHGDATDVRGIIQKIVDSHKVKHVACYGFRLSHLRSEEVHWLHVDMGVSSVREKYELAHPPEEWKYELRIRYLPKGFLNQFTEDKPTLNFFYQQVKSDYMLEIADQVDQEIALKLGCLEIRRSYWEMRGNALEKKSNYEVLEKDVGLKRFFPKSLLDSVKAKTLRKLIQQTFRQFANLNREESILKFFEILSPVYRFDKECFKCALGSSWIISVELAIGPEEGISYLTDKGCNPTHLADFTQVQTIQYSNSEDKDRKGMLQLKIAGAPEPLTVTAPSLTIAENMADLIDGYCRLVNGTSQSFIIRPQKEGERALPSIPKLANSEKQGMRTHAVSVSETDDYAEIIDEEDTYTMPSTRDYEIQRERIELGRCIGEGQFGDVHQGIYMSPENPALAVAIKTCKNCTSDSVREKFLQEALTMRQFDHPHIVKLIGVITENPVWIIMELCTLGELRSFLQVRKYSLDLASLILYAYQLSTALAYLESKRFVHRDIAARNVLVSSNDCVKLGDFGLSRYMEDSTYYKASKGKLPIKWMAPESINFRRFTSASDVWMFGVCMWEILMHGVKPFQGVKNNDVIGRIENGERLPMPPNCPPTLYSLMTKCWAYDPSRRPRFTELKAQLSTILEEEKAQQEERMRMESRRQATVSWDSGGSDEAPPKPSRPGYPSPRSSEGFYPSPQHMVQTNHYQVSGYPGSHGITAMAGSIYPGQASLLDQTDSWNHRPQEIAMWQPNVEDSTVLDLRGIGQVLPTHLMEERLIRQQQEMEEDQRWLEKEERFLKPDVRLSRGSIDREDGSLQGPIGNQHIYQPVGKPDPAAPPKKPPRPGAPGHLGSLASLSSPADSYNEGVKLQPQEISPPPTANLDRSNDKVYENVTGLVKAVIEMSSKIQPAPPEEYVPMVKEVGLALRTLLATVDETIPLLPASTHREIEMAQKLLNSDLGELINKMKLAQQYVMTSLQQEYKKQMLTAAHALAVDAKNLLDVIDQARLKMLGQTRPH

**Q.** With `COc1ccc(C2CC(c3ccc4c(c3)OCCO4)=NN2C(N)=S)cc1OC` (centres unmarked) [Compound C20, 3-(2,3-dihydrobenzo[b][1,4]dioxin-6-yl)-5-(3,4-dimethoxyphenyl)-4,5-dihydro-1H-pyrazole-1-carbothioamide] as the compound, how does the GI50 [1] read?
**A.** 0.15 ± 0.01 µM

**Q.** What about the induction of apoptosis [2] of the same compound?
**A.** induce apoptosis of activated MDA-MB-453 cell line in a dose-dependent manner

**Q.** And the p-HER-2 levels [3]?
**A.** gradually trend of decrease

**Q.** What about the Caspase3 levels [4] of the same compound?
**A.** corresponding increase

**Q.** And the IC50 [5]?
**A.** 56.2 ± 5.48 µM

**Q.** What about the GI50 at 24 h [6] of the same compound?
**A.** 274 ± 3.61 µM

**Q.** And the “Hemolysis LC30” value [7]?
**A.** >10000 µg/mL

**Q.** What about the IC50 [8] of the same compound?
**A.** 0.03 ± 0.002 µM
